The experiment has as its target T1, WT BTK protein (Homo sapiens, UniProt Q06187).
T1 construct: measured for intracellular BTK protein levels by Western blotting; endogenous in cells; host or cells: TMD-8 or RAMOS cells
Description: BTK protein degradation assay (Western blotting), WT BTK. It counts as cell-based. The following applies: concentration range accounting for 50% degradation of WT BTK protein, TMD-8 or RAMOS cells, 24 hours. How it is done:
TMD-8, RAMOS, or 293T BTK MUT (C481S) cells were treated with the synthesized compounds and measured for intracellular BTK protein levels by Western blotting. The protocol of the experiment using TMD-8 cells is as follows.
TMD-8 cells were resuspended in an RPMI1640 medium (Hyclone, SH30027.01, 10% FBS (Hyclone, SV30207.02), 1% penicillin-streptomycin (Welgene, LS 202-02) and the cell suspension was seeded at a density of 1×10^6 cells/mL in an amount of 1 mL per well into 12-well plates.
The 12-well plates were treated as follows. A 10 mM stock was 1/10 diluted in series with DMSO ([…]) to form final concentrations of 10, 1, 0.1, 0.01, 0.001, and 0.0001 mM. The compounds with such concentrations were applied to cells, followed by harvesting the cells 24 hours later. For a negative control, a 1/10 dilution of DMSO in the medium (3 mL DMSO+27 mL medium) was used.
The 1-mL cell culture in each well was passed many times through a pipette and then transferred into a 1.5-mL microtube before centrifugation (500 g, 5 min, 4° C.). The supernatant was discarded and the cell pellet was washed with PBS. After centrifugation (500 g, 5 min, 4° C.) again, the supernatant was discarded and the cell pellet was taken.
A lysis buffer was prepared as follows. RIPA buffer (Biosesang, RC2038-050-00)+0.5 mM PMSF (SIGMA, P7626)+1×Protease/Phosphatase Inhibitor (Cell signaling, 5872S) was added in an amount […] per well and left for 30 minutes on ice (vortexing at 0 and 30 minutes) before sonication (5 cycles of pulse for 10 seconds and rest for 30 seconds, 70% amplification). The supernatant obtained by centrifugation (15000 g, 15 min, 4° C.) was transferred into a new microtube. Cells in each well of 96-well plates were 1/2 diluted with the RIPA buffer and incubated at 37° C. for 30 minutes with […] of a 50:1 mixture of BCA reagents A and B in BCA Protein Assay Kit (iNtRON, 21071). After being cooled for 10 minutes, the 96-well plates were measured for absorbance at 562 nm on the BioTek, SYNERGY H1 microplate reader. Samples were prepared by protein quantification based on the absorbance measurements and then boiled at 70° C. for 10 minutes. The sample buffer used in the case was prepared by mixing a NuPAGE or a Bolt 4× sample buffer (Invitrogen) and its 10× sample reducing agent depending on the gel to be used, and protein dilution was made in a RIPI buffer.
The samples were loaded in the same amount into a NuPAGE or Bolt Bis-tris 4-12% gradient gel and allowed to run therein (200 V, 35 minutes). The separated proteins were transferred onto a […] NC membrane, using Trans-blot Turbo (BIO-RAD) (1.3 A constant, 25V limit, 15 minutes). The membrane was blocked at room temperature for 1 hour with skim milk or Intercept Blocking Buffer (LI-COR, 927-60001):0.1% TBST=1:1. The membrane was incubated with Anti BTK Rabbit (1:1,000 in 5% skim milk/0.2% TBST, size: 77 kDa, Cell signaling Technology) at 4° C. overnight O/N or at room temperature for 2 hours and with Anti GAPDH Rabbit (1:10,000 in 5% BSA/0.2% TBST, size: 36 kDa, GENETEX) and Anti β-actin mouse (1:10,000 in 5% BSA/0.2% TBST, RT, size: 43 kDa, GENETEX) at room temperature for 1 or 3 hours. Then, the membrane was washed three times with 0.5% TBST for 5 minutes each time before incubation with the second antibody Anti-Rabbit IgG (1:5,000 in 5% Skim milk/TBST, CST), IRDye® 800CW Goat anti-Rabbit IgG Secondary Antibody (1:10,000 in 5% skim/TBST, RT 45 min), or IRDye® 680RD Goat anti-Mouse IgG Secondary Antibody (1:10,000 in 5% skim/TBST, RT 45 min) for 45 minutes at room temperature in a rocker. The membrane was washed five times with 0.5% TBST for 5 minutes in each time, followed by detection with LI-COR, Odyssey. In this regard, the detection proceeded, as it was, for house-keeping genes while using SuperSignal West Pico PLUS Chemiluminescent Substrate or SuperSignal West femto Maximum Sensitivity Substrate for BTK detection. […]
T1 sequence (Q06187 whole entry): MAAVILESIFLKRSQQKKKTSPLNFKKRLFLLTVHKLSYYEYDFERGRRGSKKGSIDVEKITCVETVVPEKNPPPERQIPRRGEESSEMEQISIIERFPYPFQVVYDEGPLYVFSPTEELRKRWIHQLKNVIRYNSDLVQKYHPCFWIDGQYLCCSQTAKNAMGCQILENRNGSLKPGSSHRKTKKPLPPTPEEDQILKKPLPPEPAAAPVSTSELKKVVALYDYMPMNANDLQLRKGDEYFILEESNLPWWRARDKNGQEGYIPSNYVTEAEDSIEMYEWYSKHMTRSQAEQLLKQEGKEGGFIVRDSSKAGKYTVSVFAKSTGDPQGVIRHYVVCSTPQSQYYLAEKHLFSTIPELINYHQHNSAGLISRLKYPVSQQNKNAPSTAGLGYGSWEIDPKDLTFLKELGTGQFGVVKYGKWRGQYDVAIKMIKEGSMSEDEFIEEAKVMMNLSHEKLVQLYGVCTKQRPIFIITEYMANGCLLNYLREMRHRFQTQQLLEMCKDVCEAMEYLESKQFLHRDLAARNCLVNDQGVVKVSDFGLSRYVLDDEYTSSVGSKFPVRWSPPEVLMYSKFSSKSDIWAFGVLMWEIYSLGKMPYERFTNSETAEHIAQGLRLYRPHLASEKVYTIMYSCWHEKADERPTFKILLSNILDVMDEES
Take `Cc1cccc(C)c1Nc1nn(C)c2nc(Nc3cccc(N4CCN(CC5CCN(c6ccc7c(c6)C(=O)N(C6CCC(=O)NC6=O)C7=O)CC5)CC4)c3)ncc12` (stereo not shown) [Compound 136, 5-(4-((4-(3-((3-((2,6-dimethylphenyl)amino)-1-methyl-1H-pyrazolo[3,4-d]pyrimidin-6-yl)amino)phenyl)piperazin-1-yl)methyl)piperidin-1-yl)-2-(2,6-dioxopiperidin-3-yl)isoindoline-1,3-dione]: the DC50 (in general, the concentration giving 50% degradation) is 0.1 to 10 nM.
Regarding `Cc1cccc(C)c1Nc1nn(C)c2nc(Nc3ccc(N4CCN(CC5CCN(c6ccc7c(c6)C(=O)N(C6CCC(=O)NC6=O)C7=O)CC5)CC4)cc3)ncc12` (stereo not shown) [Compound 163, 5-(4-((4-(4-((3-((2,6-Dimethylphenyl)amino)-1-methyl-1H-pyrazolo[3,4-d]pyrimidin-6-yl)amino)phenyl)piperazin-1-yl)methyl)piperidin-1-yl)-2-(2,6-dioxopiperidin-3-yl)isoindoline-1,3-dione], the DC50 lay in the range of 0.1 to 10 nM.
On to `Cc1cccc(C)c1Nc1nn(C)c2nc(Nc3ccc(N4CCN(CC5CCN(c6cc7c(cc6F)C(=O)N(C6CCC(=O)NC6=O)C7)CC5)CC4)cc3)ncc12` (stereo not shown) [Compound 245, 3-(5-(4-((4-(4-((3-((2,6-Dimethylphenyl)amino)-1-methyl-1H-pyrazolo[3,4-d]pyrimidin-6-yl)amino)phenyl)piperazin-1-yl)methyl)piperidin-1-yl)-6-fluoro-1-oxoisoindolin-2-yl)piperidin-2,6-one], for which the DC50 lay within 0.1 to 10 nM.
In the case of `Cc1cccc(C)c1Nc1nn(C)c2nc(Nc3ccc4c(c3)CN(C(=O)CC3CCN(c5ccc6c(c5)C(=O)N(C5CCC(=O)NC5=O)C6=O)CC3)CC4)ncc12` (stereo not shown) [Compound 125, 5-(4-(2-(7-((3-((2,6-Dimethylphenyl)amino)-1-methyl-1H-pyrazolo[3,4-d]pyrimidin-6-yl)amino)-3,4-dihydroisoquinolin-2 (1H)-yl)-2-oxoethyl)piperidin-1-yl)-2-(2,6-dioxopiperidin-3-yl)isoindoline-1,3-dione] it was 0.1 to 10 nM.
The value for `Cc1cccc(C)c1Nc1nn(C)c2nc(Nc3ccc4c(c3)CN(C(=S)C3CCN(c5cc6c(cc5F)C(=O)N(C5CCC(=O)NC5=O)C6=O)CC3)CC4)ncc12` (stereo not shown) [Compound 233, 5-(4-(7-((3-((2,6-dimethylphenyl)amino)-1-methyl-1H-pyrazolo[3,4-d]pyrimidin-6-yl)amino)-1,2,3,4-tetrahydroisoquinoline-2-carbonothioyl)piperidin-1-yl)-2-(2,6-dioxopiperidin-3-yl)-6-fluoroisoindoline-1,3-dione] was 0.1 to 10 nM.
`Cc1cccc(C)c1Nc1nn(C)c2nc(Nc3ccc4c(c3)CN(CC(=O)N3CCN(c5ccc6c(c5)CN(C5CCC(=O)NC5=O)C6=O)CC3)CC4)ncc12` (stereo not shown) [Compound 103, 3-(5-(4-(2-(7-((3-((2,6-dimethylphenyl)amino)-1-methyl-1H-pyrazolo[3,4-d]pyrimidin-6-yl)amino)-3,4-dihydroisoquinolin-2 (1H)-yl)acetyl)piperazin-1-yl)-1-oxoisoindolin-2-yl)piperidin-2,6-one]: the DC50 was 10 to 1000 nM.
In the case of `Cc1cccc(C)c1Nc1nn(C)c2nc(Nc3ccc4c(c3)CN(C(=O)C3CCN(C(=O)CNc5ccc6c(=O)n(C7CCC(=O)NC7=O)nnc6c5)CC3)CC4)ncc12` (stereo not shown) [Compound 68, 3-(7-((2-(4-(7-((3-((2,6-Dimethylphenyl)amino)-1-methyl-1H-pyrazolo[3,4-d]pyrimidin-6-yl)amino)-1,2,3,4-tetrahydroisoquinoline-2-carbonyl)piperidin-1-yl)-2-oxoethyl)amino)-4-oxobenzo[d][1,2,3]triazin-3 (4H)-yl)piperidin-2,6-one] it was 10 to 1000 nM.
In the case of `Cc1cccc(C)c1Nc1nn(C)c2nc(Nc3ccc4c(c3)CN(C3CN(C[C@H]5CCN(c6ccc7c(c6)C(=O)N(C6CCC(=O)NC6=O)C7=O)C5)C3)CC4)ncc12` (stereo partly drawn) [Compound 150, 5-((R)-3-((3-(7-((3-((2,6-Dimethylphenyl)amino)-1-methyl-1H-pyrazolo[3,4-d]pyrimidin-6-yl)amino)-3,4-dihydroisoquinolin-2 (1H)-yl)azetidin-1-yl)methyl)pyrrolidin-1-yl)-2-(2,6-dioxopiperidin-3-yl)isoindoline-1,3-dione] it was 0.1 to 10 nM; in that of `Cc1cccc(C)c1Nc1nn(C)c2nc(Nc3ccc4c(c3)CN(C(=S)C3CCN(C(=O)C5CCN(c6ccc7c(c6)C(=O)N(C6CCC(=O)NC6=O)C7=O)CC5)CC3)CC4)ncc12` (stereo not shown) [Compound 234, 5-(4-(4-(7-((3-((2,6-dimethylphenyl)amino)-1-methyl-1H-pyrazolo[3,4-d]pyrimidin-6-yl)amino)-1,2,3,4-tetrahydroisoquinoline-2-carbonothioyl)piperidine-1-carbonyl)piperidin-1-yl)-2-(2,6-dioxopiperidin-3-yl)isoindoline-1,3-dione], 0.1 to 10 nM.
In the case of `Cc1cccc(C)c1Nc1nn(C)c2nc(Nc3ccc4c(c3)CN(C(=O)CN3CCC(Oc5ccc6c(c5)C(=O)N(C5CCC(=O)NC5=O)C6)CC3)CC4)ncc12` (stereo not shown) [Compound 117, 3-(6-((1-(2-(7-((3-((2,6-dimethylphenyl)amino)-1-methyl-TH-pyrazolo[3,4-d]pyrimidin-6-yl)amino)-3,4-dihydroisoquinolin-2 (1H)-yl)-2-oxoethyl)piperidin-4-yl)oxy)-1-oxoisoindolin-2-yl)piperidin-2,6-one] it was 1000 to 10000 nM; in that of `Cc1cccc(C)c1Nc1nn(C)c2nc(Nc3ccc4c(c3)CN(CC3CCN(c5ccc6c(=O)n(C7CCC(=O)NC7=O)nnc6c5)CC3)C4)ncc12` (stereo not shown) [Compound 74, 3-(7-(4-((5-((3-((2,6-Dimethylphenyl)amino)-1-methyl-1H-pyrazolo[3,4-d]pyrimidin-6-yl)amino)isoindolin-2-yl)methyl)piperidin-1-yl)-4-oxobenzo[d][1,2,3]triazin-3 (4H)-yl)piperidin-2,6-one], 10 to 1000 nM; in that of `Cc1cccc(C)c1Nc1nn(C)c2nc(Nc3ccc(C4=CCN(CC5CCN(c6ccc7c(c6)C(=O)N(C6CCC(=O)NC6=O)C7=O)CC5)CC4)cc3)ncc12` (stereo not shown) [Compound 230, 5-(4-((4-(4-((3-((2,6-Dimethylphenyl)amino)-1-methyl-1H-pyrazolo[3,4-d]pyrimidin-6-yl)amino)phenyl)-3,6-dihydropyridin-1 (2H)-yl)methyl)piperidin-1-yl)-2-(2,6-dioxopiperidin-3-yl)isoindoline-1,3-dione], 0.1 to 10 nM.
On to `Cc1cccc(C)c1Nc1nn(C)c2nc(Nc3ccc4c(c3)CN(CC3CN(C(=O)CN5CCN(c6ccc7c(c6)C(=O)N(C6CCC(=O)NC6=O)C7=O)CC5)C3)CC4)ncc12` (stereo not shown) [Compound 39, 5-(4-(2-(3-((7-((3-((2,6-Dimethylphenyl)amino)-1-methyl-1H-pyrazolo[3,4-d]pyrimidin-6-yl)amino)-3,4-dihydroisoquinolin-2 (1H)-yl)methyl)azetidin-1-yl)-2-oxoethyl)piperazin-1-yl)-2-(2,6-dioxopiperidin-3-yl)isoindoline-1,3-dione], for which the DC50 fell in the range of 0.1 to 10 nM.

Values taken from US12161722B2, “Bifunctional heterocyclic compound having BTK degradation function via ubiquitin proteasome pathway, and use thereof” (KOREA RESEARCH INSTITUTE OF CHEMICAL TECHNOLOGY, priority 2021, dated 2024).
